The target of assay [1] is Human MER (residues 528-999) (Homo sapiens (Human), UniProt Q12866). Briefly: Human Mer kinase assay, HTRF KinEase (Example C-2). It is filed as biochemical. Conditions: protocol of Example C-2 (other compounds). The method, boiled down: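 Recombinant MER 528-999 (1 ng/well) in buffer with 5 mM MgCl2 and 1 mM DTT was reacted with biotinylated peptide and ATP at Km (40 μM) for 60 min at room temperature. EDTA stop with SA-XL665 and Eu3+ TK antibody, then 665/620 nm HTRF read; IC50 from 4-parameter fit.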
Sequence of Human MER (residues 528-999) (Q12866 528-999): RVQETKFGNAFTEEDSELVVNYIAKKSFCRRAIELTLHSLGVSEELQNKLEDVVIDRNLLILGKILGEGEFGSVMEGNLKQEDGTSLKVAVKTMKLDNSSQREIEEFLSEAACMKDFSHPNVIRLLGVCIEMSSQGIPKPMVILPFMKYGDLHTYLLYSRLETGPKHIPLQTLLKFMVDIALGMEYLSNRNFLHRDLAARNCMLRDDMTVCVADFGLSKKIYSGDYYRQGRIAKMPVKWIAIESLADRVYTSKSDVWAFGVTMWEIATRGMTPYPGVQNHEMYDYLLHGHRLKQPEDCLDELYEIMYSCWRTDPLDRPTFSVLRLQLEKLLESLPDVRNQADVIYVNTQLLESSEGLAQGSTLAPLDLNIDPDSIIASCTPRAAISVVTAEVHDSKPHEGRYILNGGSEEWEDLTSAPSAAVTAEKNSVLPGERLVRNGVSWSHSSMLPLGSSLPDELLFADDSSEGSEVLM
For orientation: TR-FRET usually uses a lanthanide donor and a delayed reading to cut background.

The target of assay [2] is Mer (phospho-Mer, MERTK-transfected 293A cells) (Homo sapiens (Human), UniProt Q12866). Briefly: Mer autophosphorylation ELISA in transient transfected 293A cells (Example H). It is filed as cell-based. The conditions noted are these: cellular activity; Mer autophosphorylation ELISA in transient transfected 293A cells. An outline of the steps:
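293A cells transiently transfected with human MERTK were treated 1 h in serum-free medium with an 8-point compound dilution (0.3% DMSO final). Lysates were assayed by phospho-Mer sandwich ELISA against a phospho-Mer standard; IC50 came from a 4-parameter logistic fit, normalised to DMSO (100%) and reference-inhibitor (0%) controls.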

Assay [3] deals with Human KDR (residues 790-1356) (Homo sapiens (Human), UniProt P35968). Put plainly: Human KDR kinase assay, HTRF KinEase (Example B-2). The assay is classed as biochemical. Conditions: protocol of Example B-2 (other compounds). The method, boiled down: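 Human KDR residues 790-1356 (0.1 ng/well) in buffer with 5 mM MgCl2, 1 mM MnCl2, 1 mM DTT, biotinylated peptide substrate, ATP at Km (4.0 μM), 3% DMSO, 10 compound concentrations; 40 min, room temperature. EDTA stop, streptavidin-XL665/Eu-TK antibody HTRF read 665/620 nm; 4-parameter IC50.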
Sequence of Human KDR (residues 790-1356) (P35968 790-1356): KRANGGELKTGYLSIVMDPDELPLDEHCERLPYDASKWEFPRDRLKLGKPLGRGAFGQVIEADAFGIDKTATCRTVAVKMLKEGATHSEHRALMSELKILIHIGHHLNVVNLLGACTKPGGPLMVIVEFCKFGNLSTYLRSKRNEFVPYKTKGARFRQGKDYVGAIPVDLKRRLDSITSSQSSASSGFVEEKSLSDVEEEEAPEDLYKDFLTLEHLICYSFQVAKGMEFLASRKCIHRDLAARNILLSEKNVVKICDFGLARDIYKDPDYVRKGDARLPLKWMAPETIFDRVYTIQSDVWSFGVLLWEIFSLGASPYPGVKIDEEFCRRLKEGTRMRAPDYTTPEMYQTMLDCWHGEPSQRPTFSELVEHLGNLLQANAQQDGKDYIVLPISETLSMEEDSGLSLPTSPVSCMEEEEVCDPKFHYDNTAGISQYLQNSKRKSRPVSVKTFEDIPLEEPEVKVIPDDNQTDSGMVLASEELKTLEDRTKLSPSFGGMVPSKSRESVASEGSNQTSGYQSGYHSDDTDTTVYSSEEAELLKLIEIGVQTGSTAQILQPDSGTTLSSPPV

Assay [4] addresses Met (phospho-Met, HGF-stimulated PC-3 prostate cancer cells) (Homo sapiens (Human), UniProt P08581). Briefly: Met autophosphorylation ELISA in PC-3 cells (Example F). The assay is classed as cell-based. Conditions: cellular activity; Met autophosphorylation ELISA in PC-3 cells; read-out: c-Met IC50. The method, boiled down:
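Sandwich ELISA for phospho-Met (panTyr) in PC-3 lysates. Cells starved 3 h serum-free, compound 1 h (8-pt curve, 0.3% DMSO), HGF 100 ng/mL 10 min. 100% = HGF + DMSO; 0% = HGF + reference inhibitor. IC50 by 4-parameter fit.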
(In general: ELISA stands for enzyme-linked immunosorbent assay.)

Sequence of Mer (phospho-Mer, MERTK-transfected 293A cells) (Q12866 21-999): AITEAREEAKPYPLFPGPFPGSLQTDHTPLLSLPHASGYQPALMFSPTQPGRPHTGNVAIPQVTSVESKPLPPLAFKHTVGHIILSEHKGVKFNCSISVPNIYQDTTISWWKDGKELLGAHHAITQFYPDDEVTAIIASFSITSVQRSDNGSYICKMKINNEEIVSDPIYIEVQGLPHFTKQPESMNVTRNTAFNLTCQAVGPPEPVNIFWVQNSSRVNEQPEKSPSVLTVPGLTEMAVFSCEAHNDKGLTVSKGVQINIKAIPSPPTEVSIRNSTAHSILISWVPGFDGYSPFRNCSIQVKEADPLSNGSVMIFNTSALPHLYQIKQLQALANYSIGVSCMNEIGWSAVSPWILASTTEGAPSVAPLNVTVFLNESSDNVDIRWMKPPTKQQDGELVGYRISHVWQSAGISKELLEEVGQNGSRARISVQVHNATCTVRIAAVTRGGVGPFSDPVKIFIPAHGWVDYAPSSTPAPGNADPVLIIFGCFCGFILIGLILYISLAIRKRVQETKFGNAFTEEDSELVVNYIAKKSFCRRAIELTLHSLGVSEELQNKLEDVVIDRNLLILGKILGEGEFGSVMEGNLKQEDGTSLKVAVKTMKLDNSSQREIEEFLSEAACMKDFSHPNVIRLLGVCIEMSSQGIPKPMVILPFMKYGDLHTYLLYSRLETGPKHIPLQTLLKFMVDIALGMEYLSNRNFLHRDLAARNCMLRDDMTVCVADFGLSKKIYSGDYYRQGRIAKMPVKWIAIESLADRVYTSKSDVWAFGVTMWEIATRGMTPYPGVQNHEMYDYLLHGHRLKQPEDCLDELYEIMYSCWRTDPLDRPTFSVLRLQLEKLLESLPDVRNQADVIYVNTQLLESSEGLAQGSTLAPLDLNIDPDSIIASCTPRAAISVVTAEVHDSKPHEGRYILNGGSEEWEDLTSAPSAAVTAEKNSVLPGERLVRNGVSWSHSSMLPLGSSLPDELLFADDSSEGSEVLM
Sequence of Met (phospho-Met, HGF-stimulated PC-3 prostate cancer cells) (P08581 25-1390): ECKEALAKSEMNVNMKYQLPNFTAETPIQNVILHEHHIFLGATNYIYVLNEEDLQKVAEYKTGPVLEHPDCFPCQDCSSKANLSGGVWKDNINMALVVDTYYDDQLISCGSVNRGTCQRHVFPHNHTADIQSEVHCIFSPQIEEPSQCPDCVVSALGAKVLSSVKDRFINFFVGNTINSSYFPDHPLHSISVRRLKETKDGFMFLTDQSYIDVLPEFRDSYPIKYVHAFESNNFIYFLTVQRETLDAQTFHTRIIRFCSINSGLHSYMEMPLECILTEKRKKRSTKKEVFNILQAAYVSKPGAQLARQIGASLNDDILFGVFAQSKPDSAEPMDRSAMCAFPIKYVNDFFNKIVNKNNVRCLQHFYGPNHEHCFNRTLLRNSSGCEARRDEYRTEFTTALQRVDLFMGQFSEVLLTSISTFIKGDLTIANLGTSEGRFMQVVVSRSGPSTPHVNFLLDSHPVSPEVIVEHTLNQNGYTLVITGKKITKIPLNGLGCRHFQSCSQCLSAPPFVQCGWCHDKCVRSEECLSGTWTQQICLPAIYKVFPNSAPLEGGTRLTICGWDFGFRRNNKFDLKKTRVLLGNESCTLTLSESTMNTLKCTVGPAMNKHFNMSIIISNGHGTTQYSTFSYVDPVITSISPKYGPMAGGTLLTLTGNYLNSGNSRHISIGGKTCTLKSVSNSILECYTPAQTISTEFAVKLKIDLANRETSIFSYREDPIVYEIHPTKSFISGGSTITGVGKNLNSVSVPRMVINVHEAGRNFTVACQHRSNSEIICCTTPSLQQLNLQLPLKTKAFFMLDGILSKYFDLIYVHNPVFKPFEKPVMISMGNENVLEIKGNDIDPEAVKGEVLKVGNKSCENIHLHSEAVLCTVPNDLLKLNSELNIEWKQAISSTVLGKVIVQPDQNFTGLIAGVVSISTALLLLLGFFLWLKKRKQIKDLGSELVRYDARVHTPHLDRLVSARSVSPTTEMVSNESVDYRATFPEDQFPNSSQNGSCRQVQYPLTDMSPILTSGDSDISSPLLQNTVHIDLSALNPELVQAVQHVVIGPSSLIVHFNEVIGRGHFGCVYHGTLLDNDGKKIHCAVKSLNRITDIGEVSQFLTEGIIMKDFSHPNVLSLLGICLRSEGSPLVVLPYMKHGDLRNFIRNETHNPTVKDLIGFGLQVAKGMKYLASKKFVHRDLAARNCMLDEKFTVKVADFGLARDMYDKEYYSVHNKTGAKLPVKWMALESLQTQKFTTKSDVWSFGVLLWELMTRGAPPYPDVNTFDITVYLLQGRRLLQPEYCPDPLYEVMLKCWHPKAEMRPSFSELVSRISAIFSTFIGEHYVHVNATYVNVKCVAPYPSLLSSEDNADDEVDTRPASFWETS

As for `COc1cc2nccc(Oc3ccc(NC(=O)c4cn(C(C)(C)C)cc(-c5ccc(F)cc5)c4=O)cc3F)c2nc1OC` [Compound 48, 1-tert-Butyl-N-[4-[(6,7-dimethoxy-1,5-naphthyridin-4-yl)oxy]-3-fluorophenyl]-5-(4-fluorophenyl)-4-oxopyridine-3-carboxamide], the IC50 – broadly, the concentration at which inhibition is half-maximal – in assay [1] was below 100 nM; in assay [2], below 100 nM; in assay [3], above 300 nM; in assay [4] it was below 100 nM.
In the case of `COc1cc2nccc(Oc3ccc(NC(=O)c4cn(-c5ccn(C)n5)cc(-c5ccc(F)cc5)c4=O)cc3F)c2nc1OC` [Compound 53, N-[4-[(6,7-Dimethoxy-1,5-naphthyridin-4-yl)oxy]-3-fluorophenyl]-5-(4-fluorophenyl)-1-(1-methylpyrazol-3-yl)-4-oxopyridine-3-carboxamide], the IC50 in assay [1] was below 100 nM; in assay [2] it was below 100 nM; in assay [3] it was above 300 nM; in assay [4], below 100 nM.
Regarding `COc1cc2nccc(Oc3ccc(NC(=O)c4cn(C)c(C)c(-c5ccc(F)cc5)c4=O)cc3F)c2nc1OC` [Compound 58, N-[4-[(6,7-Dimethoxy-1,5-naphthyridin-4-yl)oxy]-3-fluorophenyl]-5-(4-fluorophenyl)-1,6-dimethyl-4-oxopyridine-3-carboxamide], the IC50 in assay [1], in assay [2], in assay [3] and in assay [4] was below 100 nM each time.
Consider `COc1cc2nccc(Oc3ccc(NC(=O)c4cn(C5(C(F)(F)F)CC5)cc(-c5ccc(F)cc5)c4=O)cc3F)c2nc1OC` [Compound 59, N-[4-[(6,7-Dimethoxy-1,5-naphthyridin-4-yl)oxy]-3-fluorophenyl]-5-(4-fluorophenyl)-4-oxo-1-[1-(trifluoromethyl)cyclopropyl]pyridine-3-carboxamide], for which the IC50 in assay [1] was below 100 nM; in assay [2], below 100 nM; in assay [3], 100 to 300 nM; in assay [4], below 100 nM.
In the case of `COc1cc2nccc(Oc3ccc(NC(=O)c4cn(-c5cnn(C(F)F)c5)cc(-c5ccc(F)cc5)c4=O)cc3F)c2nc1OC` [Compound 60, 1-[1-(Difluoromethyl)pyrazol-4-yl]-N-[4-[(6,7-dimethoxy-1,5-naphthyridin-4-yl)oxy]-3-fluorophenyl]-5-(4-fluorophenyl)-4-oxopyridine-3-carboxamide], the IC50 in assay [1] was below 100 nM; in assay [2], below 100 nM; in assay [3] it was above 300 nM; in assay [4], below 100 nM.
`COc1cc2nccc(Oc3ccc(NC(=O)c4cn(-c5cc[nH]n5)cc(-c5ccc(F)cc5)c4=O)cc3F)c2nc1OC` [Compound 61, N-[4-[(6,7-Dimethoxy-1,5-naphthyridin-4-yl)oxy]-3-fluorophenyl]-5-(4-fluorophenyl)-4-oxo-1-(1H-pyrazol-3-yl)pyridine-3-carboxamide]: the IC50 was below 100 nM in assay [1], below 100 nM in assay [2], above 300 nM in assay [3] and below 100 nM in assay [4].
On to `COc1cc2nccc(Oc3ccc(NC(=O)c4cn(-c5cn[nH]c5)cc(-c5ccc(F)cc5)c4=O)cc3F)c2nc1OC` [Compound 62, N-[4-[(6,7-Dimethoxy-1,5-naphthyridin-4-yl)oxy]-3-fluorophenyl]-5-(4-fluorophenyl)-4-oxo-1-(1H-pyrazol-4-yl)pyridine-3-carboxamide], for which the IC50 in assay [1] was below 100 nM; in assay [2] it was below 100 nM; in assay [3], above 300 nM; in assay [4], below 100 nM.
In the case of `CCn1cc(C(=O)Nc2ccc(Oc3ccnc4cc(OC)c(OC)nc34)c(F)c2)c(=O)c(-c2ccc(F)cc2)c1C` [Compound 63, N-[4-[(6,7-Dimethoxy-1,5-naphthyridin-4-yl)oxy]-3-fluorophenyl]-1-ethyl-5-(4-fluorophenyl)-6-methyl-4-oxopyridine-3-carboxamide], the concentration for half-maximal inhibition (IC50) in assay [1], in assay [2], in assay [3] and in assay [4] was below 100 nM in each case.
With `COc1cnc2c(Oc3ccc(NC(=O)c4cnc(C)c(-c5ccc(F)cc5)c4O)cc3F)ccnc2c1` [Compound 64, N-[3-Fluoro-4-[(7-methoxy-1,5-naphthyridin-4-yl)oxy]phenyl]-5-(4-fluorophenyl)-4-hydroxy-6-methylpyridine-3-carboxamide], the IC50 in assay [1], in assay [2], in assay [3] and in assay [4] was below 100 nM each time.
For the compound `COc1cc2nccc(Oc3ccc(NC(=O)c4cn(C)c(C)c(-c5ccc(F)cc5)c4=O)cc3)c2nc1OC` [Compound 65, N-[4-[(6,7-Dimethoxy-1,5-naphthyridin-4-yl)oxy]phenyl]-5-(4-fluorophenyl)-1,6-dimethyl-4-oxopyridine-3-carboxamide], the IC50 in assay [1], in assay [2], in assay [3] and in assay [4] was below 100 nM each time.
In the case of `COc1cnc2c(Oc3ccc(NC(=O)c4c(C)nc(C)c(-c5ccc(F)cc5)c4O)cc3F)ccnc2c1` [Compound 66, N-[3-Fluoro-4-[(7-methoxy-1,5-naphthyridin-4-yl)oxy]phenyl]-5-(4-fluorophenyl)-4-hydroxy-2,6-dimethylpyridine-3-carboxamide], the IC50 in assay [1], in assay [2], in assay [3] and in assay [4] was below 100 nM in each case.
Turning to `COc1ccc2nccc(Oc3ccc(NC(=O)c4c(C)nc(C)c(-c5ccc(F)cc5)c4O)cc3F)c2n1` [Compound 67, N-[3-Fluoro-4-[(6-methoxy-1,5-naphthyridin-4-yl)oxy]phenyl]-5-(4-fluorophenyl)-4-hydroxy-2,6-dimethylpyridine-3-carboxamide], the IC50 in assay [1], in assay [2], in assay [3] and in assay [4] was below 100 nM in each case.
As for `COCCOc1nc2c(Oc3ccc(NC(=O)c4cnc(C)c(-c5ccc(F)cc5)c4O)cc3F)ccnc2cc1OC` [Compound 68, N-[3-Fluoro-4-[[7-methoxy-6-(2-methoxyethoxy)-1,5-naphthyridin-4-yl]oxy]phenyl]-5-(4-fluorophenyl)-4-hydroxy-6-methylpyridine-3-carboxamide], the IC50 in assay [1], in assay [2], in assay [3] and in assay [4] was below 100 nM in each case.
For the compound `COc1cc2nccc(Oc3ccc(NC(=O)c4cnc(C)c(-c5ccc(F)cc5C)c4O)cc3F)c2nc1OC` [Compound 69, N-[4-[(6,7-Dimethoxy-1,5-naphthyridin-4-yl)oxy]-3-fluorophenyl]-5-(4-fluoro-2-methylphenyl)-4-hydroxy-6-methylpyridine-3-carboxamide], the IC50 in assay [1], in assay [2], in assay [3] and in assay [4] was below 100 nM each time.
On to `COc1ccc2nccc(Oc3ccc(NC(=O)c4c(C)nc(C)c(-c5ccc(F)cc5C)c4O)cc3F)c2n1` [Compound 70, N-[3-Fluoro-4-[(6-methoxy-1,5-naphthyridin-4-yl)oxy]phenyl]-5-(4-fluoro-2-methylphenyl)-4-hydroxy-2,6-dimethylpyridine-3-carboxamide], for which the IC50 in assay [1] is below 100 nM; in assay [2], below 100 nM; in assay [3] it was 100 to 300 nM; in assay [4] it was below 100 nM.
In the case of `COc1cc2nccc(Oc3ccc(NC(=O)c4cnc(CO)c(-c5ccc(F)cc5)c4O)cc3F)c2nc1OC` [Compound 71, N-[4-[(6,7-Dimethoxy-1,5-naphthyridin-4-yl)oxy]-3-fluorophenyl]-5-(4-fluorophenyl)-4-hydroxy-6-(hydroxymethyl)pyridine-3-carboxamide], the IC50 in assay [1], in assay [2], in assay [3] and in assay [4] was below 100 nM in each case.
On to `COc1cc2nccc(Oc3ccc(NC(=O)c4cn(C)c(CO)c(-c5ccc(F)cc5)c4=O)cc3F)c2nc1OC` [Compound 72, N-[4-[(6,7-Dimethoxy-1,5-naphthyridin-4-yl)oxy]-3-fluorophenyl]-5-(4-fluorophenyl)-6-(hydroxymethyl)-1-methyl-4-oxopyridine-3-carboxamide], for which the IC50 in assay [1] is below 100 nM; in assay [2] it was below 100 nM; in assay [3], 100 to 300 nM; in assay [4], below 100 nM.
Take `COc1cc2nccc(Oc3ccc(NC(=O)c4cn(C)c(CF)c(-c5ccc(F)cc5)c4=O)cc3F)c2nc1OC` [Compound 73, N-[4-[(6,7-Dimethoxy-1,5-naphthyridin-4-yl)oxy]-3-fluorophenyl]-6-(fluoromethyl)-5-(4-fluorophenyl)-1-methyl-4-oxopyridine-3-carboxamide]: the IC50 in assay [1] was below 100 nM; in assay [2] it was below 100 nM; in assay [3], 100 to 300 nM; in assay [4], below 100 nM.

Values taken from patent US12371428B2 (Exelixis, Inc., priority 2019, dated 2025).
